Laboratory results taken from patent publication US20100216799A1, “PHTHALAZINE AND PYRIDO[3,4-D]PYRIDAZINE COMPOUNDS AS H1 RECEPTOR ANTAGONISTS” (Glaxo Group Limited, priority 2007, published 2010).

Legend:
Type in all cases: cell-based
[1] = target: T1, human H1 receptor (Homo sapiens, UniProt P35367); assay: Histamine H1 functional antagonist assay (FLIPR): determination of antagonist pA2; details: CHO cells expressing H1 receptor, shift of histamine concentration response curve
T1 construct: expressed in transfected cells
Method: The human H1 receptor is cloned using known procedures described in the literature [Biochem. Biophys. Res. Commun., 201(2):894 (1994)]. Chinese hamster ovary (CHO) cells stably expressing the human H1 receptor are generated according to known procedures described in the literature [Br. J. Pharmacol., 117(6):1071 (1996)]. The histamine H1 receptor expressing CHO cells are seeded into non-coated black-walled clear bottom 96-well tissue culture plates as described above. Following overnight culture, growth medium is removed from each well, washed with 200 μl PBS and is replaced with 50 μl loading dye (250 μM Brilliant Black, 1 μM Fluo-4 diluted in Tyrodes buffer+probenecid (145 mM NaCl, 2.5 mM KCl, 10 mM HEPES, 10 mM D-glucose, 1.2 mM MgCl2, 1.5 mM CaCl2, 2.5 mM probenecid, pH adjusted to 7.40 with NaOH 1.0 M)). Cells are incubated for 45 min at 37° C. The loading buffer is removed and the cells are washed as above, and 90 μl of Tyrodes buffer+probenecid is added to each well. 10 μl of test compound, diluted to the required concentration in Tyrodes buffer+probenecid (or 10 μl Tyrodes buffer+probenecid as a control) is added to each well and the plate is incubated for 30 min at 37° C., 5% CO2. The plates are then placed into a FLIPR™ (Molecular Devices, UK) to monitor cell fluorescence (λex=488 nm, λEM=540 nm) in the manner described in Sullivan et al., (In: Lambert DG (ed.), Calcium Signaling Protocols, New Jersey: Humana Press, 1999, 125-136) before and after the addition of 50 μl histamine over a concentration range of 1 mM-0.1 nM. The resultant concentration response curves are analysed by non-linear regression using a standard four parameter logistic equation to determine the histamine EC50, the concentration of histamine required to produce a response of 50% of the maximum response to histamine. The antagonist pA2 is calculated using the following standard equation: pA2=log(DR-1)−log [B] where DR=dose ratio, defined as EC50antagonist-treated/EC50control and [B]=concentration of antagonist.

[2] = target: T1, human H1 receptor; assay: Histamine H1 functional antagonist assay (FLIPR): antagonist duration after washout; details: at one or more time points, typically 30-270 min
Method: (§1) The human H1 receptor is cloned using known procedures described in the literature [Biochem. Biophys. Res. Commun., 201(2):894 (1994)]. Chinese hamster ovary (CHO) cells stably expressing the human H1 receptor are generated according to known procedures described in the literature [Br. J. Pharmacol., 117(6):1071 (1996)].
To determine the antagonist duration, cells are cultured overnight in non-coated black-walled clear bottom 96-well tissue culture plates, are washed with PBS and are incubated with a concentration of antagonist chosen to give an approximate DR in the range 30-300. Following the 30 min antagonist incubation period, the cells are washed two or three times with 200 μl of PBS and then 100 μl Tyrodes buffer is added to each well to initiate antagonist dissociation. Following incubation for predetermined times, typically 30-270 min at 37° C., the cells are then washed again with 200 μl PBS and are incubated with 100 μl Tyrodes buffer containing Brilliant Black, probenecid and Fluo-4 for 45 min at 37° C., as described above. After this period, the cells are challenged with histamine in the FLIPR™ as described above. The dose ratio at each time point is used to determine the fractional H1 receptor occupancy by the following equation: fractional receptor occupancy=(DR-1)/DR. The decrease in receptor occupancy over time approximates to a straight line and is analysed by linear regression. The slope of this straight line fit is used as an index of the dissociation rate of the antagonist. The dose ratios for antagonist treated cells and for antagonist treated and washed cells at each time point are used to calculate a relative dose ratio (rel DR) which is also used as an index of antagonist duration. Antagonists with long duration of action produce rel DR values close to 1, and antagonists with short duration of action produce rel DR values that approaches the dose ratio value obtained for antagonist treatment alone.

[3] = target: T1, human H1 receptor; assay: Histamine H1 functional antagonist assay (FLIPR): determination of functional pKi values; details: CHO cells expressing human H1 receptor, histamine at EC80, read-out: average pKa (pKb) at H1 (converted)
Method: as §1
The histamine H1 cell line is seeded into non-coated black-walled clear bottom 384-well tissue culture plates in alpha minimum essential medium (Gibco/Invitrogen, cat no. 22561-021), supplemented with 10% dialysed foetal calf serum (Gibco/Invitrogen cat no. 12480-021) and 2 mM L-glutamine (Gibco/Invitrogen cat no 25030-024) and is maintained overnight at 5% CO2, 37° C.
Excess medium is removed from each well to leave 10 μl. 30 μl loading dye (250 μM Brilliant Black, 2 μM Fluo-4 diluted in Tyrodes buffer+probenecid (145 mM NaCl, 2.5 mM KCl, 10 mM HEPES, 10 mM D-glucose, 1.2 mM MgCl2, 1.5 mM CaCl2, 2.5 mM probenecid, pH adjusted to 7.40 with NaOH 1.0 M)) is added to each well and the plates are incubated for 60 min at 5% CO2, 37° C.
10 μl of test compound, diluted to the required concentration in Tyrodes buffer+probenecid (or 10 μl Tyrodes buffer+probenecid as a control) is added to each well and the plate is incubated for 30 min at 37° C., 5% CO2. The plates are then placed into a FLIPR™ (Molecular Devices, UK) to monitor cell fluorescence (λex=488 nm, λEM=540 nm) in the manner described in Sullivan et al., (In: Lambert DG (ed.), Calcium Signaling Protocols, New Jersey: Humana Press, 1999, 125-136) before and after the addition of 10 μl histamine at a concentration that results in the final assay concentration of histamine being EC80.
Functional antagonism is indicated by a suppression of histamine induced increase in fluorescence, as measured by the FLIPR™ system (Molecular Devices). By means of concentration effect curves, functional affinities are determined using standard pharmacological mathematical analysis.

T1 sequence (P35367 whole entry): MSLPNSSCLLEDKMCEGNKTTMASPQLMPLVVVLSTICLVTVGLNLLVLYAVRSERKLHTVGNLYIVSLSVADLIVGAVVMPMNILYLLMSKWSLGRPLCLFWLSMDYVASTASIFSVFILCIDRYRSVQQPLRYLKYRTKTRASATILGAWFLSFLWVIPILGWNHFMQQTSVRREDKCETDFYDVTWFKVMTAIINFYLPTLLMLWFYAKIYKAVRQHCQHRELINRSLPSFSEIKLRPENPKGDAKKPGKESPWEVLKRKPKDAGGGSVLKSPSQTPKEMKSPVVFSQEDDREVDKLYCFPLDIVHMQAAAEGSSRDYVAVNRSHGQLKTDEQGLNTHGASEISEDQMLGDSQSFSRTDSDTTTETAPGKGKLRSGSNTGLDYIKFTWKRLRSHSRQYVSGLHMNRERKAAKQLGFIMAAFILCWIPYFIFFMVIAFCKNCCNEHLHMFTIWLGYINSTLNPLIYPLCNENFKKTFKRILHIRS

Row | Compound | Kb [1] | duration of action compared with azelastine [2] | Kb [3]
1 | CCS(=O)(=O)[C@@H](C)CCN1CCC[C@@H]1Cn1nc(Cc2ccc(Cl)cc2)c2ccccc2c1=O [Example 5A, 4-[(4-Chlorophenyl)methyl]-2-({(2R)-1-[(3S)-3-(ethylsulfonyl)butyl]-2-pyrrolidinyl}methyl)-(2H)-phthalazinone] | < 10 nM |  | 
2 | CCS(=O)(=O)CCCN1CCC[C@@H]1Cn1nc(Cc2ccc(Cl)cc2)c2ccccc2c1=O [Example 3, 4-[(4-Chlorophenyl)methyl]-2-({(2R)-1-[3-(ethylsulfonyl)propyl]-2-pyrrolidinyl}methyl)-1(2H)-phthalazinone] | < 1 nM | longer duration of action than azelastine | 
3 | CCCS(=O)(=O)NCCN1CCC[C@@H]1Cn1nc(Cc2ccc(Cl)cc2)c2ccccc2c1=O [Example 7, N-[2-((2R)-2-{[4-[(4-Chlorophenyl)methyl]-1-oxo-2(1H)-phthalazinyl]methyl}-1-pyrrolidinyl)ethyl]-1-propanesulfonamide] | < 1 nM | longer duration of action than azelastine | < 100 nM
4 | CCCNC(=O)NCCN1CCC[C@@H]1Cn1nc(Cc2ccc(Cl)cc2)c2ccccc2c1=O [Example 11, N-[2-((2R)-2-{[4-[(4-Chlorophenyl)methyl]-1-oxo-2(1H)-phthalazinyl]methyl}-1-pyrrolidinyl)ethyl]-M-propylurea] | < 1 nM | longer duration of action than azelastine | 
5 | CCS(=O)(=O)NCCN1CCC[C@@H]1Cn1nc(Cc2ccc(Cl)cc2)c2ccccc2c1=O [Example 6, N-[2-((2R)-2-{[4-[(4-Chlorophenyl)methyl]-1-oxo-2(1H)-phthalazinyl]methyl}-1-pyrrolidinyl)ethyl]ethanesulfonamide] | < 1 nM | longer duration of action than azelastine | 
6 | CCS(=O)(=O)[C@H](C)CCN1CCC[C@@H]1Cn1nc(Cc2ccc(Cl)cc2)c2ccccc2c1=O [Example 5B, 4-[(4-Chlorophenyl)methyl]-2-({(2R)-1-[(3R)-3-(ethylsulfonyl)butyl]-2-pyrrolidinyl}methyl)-(2H)-phthalazinone] | < 10 nM |  | 
7 | CCS(=O)(=O)CCCN1CCC[C@@H]1Cn1nc(Cc2ccc(Cl)cc2)c2cnccc2c1=O [Example 12, 4-[(4-Chlorophenyl)methyl]-2-({(2R)-1-[3-(ethylsulfonyl)propyl]-2-pyrrolidinyl}methyl)pyrido[3,4-d]pyridazin-1(2H)-one] | < 1 nM | longer duration of action than azelastine | 
8 | CCS(=O)(=O)C(C)CCN1CCC[C@@H]1Cn1nc(Cc2ccc(Cl)cc2)c2ccccc2c1=O (stereo partly drawn) [Example 4, 4-[(4-Chlorophenyl)methyl]-2-({(2R)-1-[3-(ethylsulfonyl)butyl]-2-pyrrolidinyl}methyl)-1(2H)-phthalazinone] | < 1 nM |  | 
9 | CC(C)S(=O)(=O)NCCN1CCC[C@@H]1Cn1nc(Cc2ccc(Cl)cc2)c2ccccc2c1=O [Example 8, N-[2-((2R)-2-{[4-[(4-Chlorophenyl)methyl]-1-oxo-2(1H)-phthalazinyl]methyl}-1-pyrrolidinyl)ethyl]-2-propanesulfonamide] | < 1 nM | longer duration of action than azelastine | < 100 nM
10 | O=c1c2ccccc2c(Cc2ccc(Cl)cc2)nn1C[C@H]1CCCN1CCS(=O)(=O)N1CCCCC1 [Example 2, 4-[(4-Chlorophenyl)methyl]-2-({(2R)-1-[2-(1-piperidinylsulfonyl)ethyl]-2-pyrrolidinyl}methyl)-1(2H)-phthalazinone] |  |  | < 100 nM
11 | CCS(=O)(=O)CCN1CCC[C@@H]1Cn1nc(Cc2ccc(Cl)cc2)c2cnccc2c1=O [Example 13, 4-[(4-Chlorophenyl)methyl]-2-({(2R)-1-[2-(ethylsulfonyl)ethyl]-2-pyrrolidinyl}methyl)pyrido[3,4-d]pyridazin-1(2H)-one] | < 10 nM |  | 
12 | CCCNC(=O)NCCN1CCC[C@@H]1Cn1nc(Cc2ccc(Cl)cc2)c2cnccc2c1=O [Example 14, N-[2-((2R)-2-{[4-[(4-chlorophenyl)methyl]-1-oxopyrido[3,4-d]pyridazin-2(1H)-yl]methyl}-1-pyrrolidinyl)ethyl]-M-propylurea] | < 1 nM |  | 
13 | COCCCNS(=O)(=O)CCN1CCC[C@@H]1Cn1nc(Cc2ccc(Cl)cc2)c2ccccc2c1=O [Example 10, 2-((2R)-2-{[4-[(4-Chlorophenyl)methyl]-1-oxo-2(1H)-phthalazinyl]methyl}-1-pyrrolidinyl)-N-[3-(methyloxy)propyl]ethanesulfonamide] | < 10 nM | longer duration of action than azelastine | < 100 nM
14 | CCS(=O)(=O)CCN1CCC[C@@H]1Cn1nc(Cc2ccc(Cl)cc2)c2ccccc2c1=O [Example 1, 4-[(4-Chlorophenyl)methyl]-2-({(2R)-1-[2-(ethylsulfonyl)ethyl]-2-pyrrolidinyl}methyl)-1(2H)-phthalazinone] | < 1 nM |  | 
